# Laboratory results reported in patent publication US9926261B2, “Bacterial efflux pump inhibitors” (Rutgers, The State University of New Jersey, priority 2015, dated 2018).
# System: Escherichia coli W4573
# Assay: Test A. Minimum Inhibitory Concentration (MIC)-based assay for efflux pump inhibition (enhancement of minocycline MIC)
# Type: cell-based
# Details: ratio of minocycline MIC in absence of test compound to minocycline MIC in presence of test compound, test compound 12.5 μg/mL, CAMH broth, 24 hours at 37° C.
# Experimental: Test A. Minimum Inhibitory Concentration (MIC)-Based Assay for Efflux Pump Inhibition:
# MIC-based assays were used to evaluate the impact of potential efflux pump inhibiting (EPI) compounds on the MIC of minocycline, an antibiotic known to be a substrate for Gram-negative bacterial efflux pumps. The assays were conducted in accordance with Clinical and Laboratory Standards Institute (CLSI) guidelines for broth microdilution, with the modification that assays were conducted in the presence and absence of the test EPI compounds. When present, the EPI compounds were added to cation-adjusted Mueller-Hinton (CAMH) broth (Becton, Dickinson and Co., Franklin Lakes, N.J.) at a final concentration of 12.5 μg/mL.
# Log-phase Gram-negative bacteria were added to 96-well microtiter plates (at 5×10^5 colony forming units (CFU) per mL) containing two-fold serial dilutions of minocycline in CAMH broth either in the absence or presence of the test EPI compounds. In all assays, each serial dilution of minocycline was present in duplicate. The final volume in each well was 0.1 mL, and the microtiter plates were incubated aerobically for 24 hours at 37° C. Bacterial growth was then monitored by measuring the optical density (OD) at 600 nm using a VersaMax® plate reader (Molecular Devices, Inc., Sunnyvale, Calif.), with the MIC being defined as the lowest compound concentration at which growth was ≥90% inhibited compared to antibiotic-free control. The following Gram-negative bacterial strains were included in these assays: • Escherichia coli W4573, ATCC 25922, and ATCC BAA-201 (an extended spectrum β-lactamase (ESBL)-producing strain that expresses the TEM-3 β-lactamase). • Klebsiella pneumoniae ATCC 13883 and ATCC 700603 (an ESBL-producing strain that expresses the SHV-18 β-lactamase). • Pseudomonas aeruginosa ATCC 27853. The efflux pump mutant E. coli strain N43 (acrA1) was used as a positive control.
# The enhancement is the ratio of the minocycline MIC in the absence of test compound to the minocycline MIC in the presence of test compound.
row,Structure (SMILES),Enhancement
1,"Cl.Cl.NCCC[C@H](N)CNC(=O)c1cccc(C(F)(F)F)c1 [Example 2, (S)-5-(3-(trifluoromethyl)benzamido)pentane-1,4-diaminium chloride]",2
2,"Cl.Cl.NCCC[C@H](N)CNC(=O)c1cc(-c2ccc(F)cc2)cc(-c2ccc(F)cc2)c1 [Example 13, (S)-5-(4,4″-difluoro-[1,1′:3′,1″-terphenyl]-5′-carboxamido)pentane-1,4-diaminium chloride]",128
3,"NC[C@@H](N)CCCNC(=O)c1cc(-c2ccccc2)cc(-c2ccccc2)c1 [Example 12, (S)-5-([1,1′:3′,1″-terphenyl]-5′-carboxamido)pentane-1,2-diaminium chloride]",2
4,"Cl.Cl.NCCC[C@H](N)CNC(=O)c1ccc(C(F)(F)F)c(C(F)(F)F)c1 [Example 6, (S)-5-(3,4-Bis(trifluoromethyl)benzamido)pentane-1,4-diaminium chloride]",32
5,"Cl.Cl.NCC[C@H](N)CNC(=O)c1cc(C(F)(F)F)cc(C(F)(F)F)c1 [Example 9, (S)-4-(3,5-bis(trifluoromethyl)benzamido)butane-1,3-diaminium chloride]",16
6,"Cl.Cl.NCCC[C@H](N)CNC(=O)c1cc(C(F)(F)F)ccc1C(F)(F)F [Example 5, (S)-5-(2,5-bis(trifluoromethyl)benzamido)pentane-1,4-diaminium chloride]",2
7,"Cl.Cl.NCCC[C@H](N)CNC(=O)c1ccccc1-c1ccccc1 [Example 4, (S)-5-([1,1′-biphenyl]-2-carboxamido)pentane-1,4-diaminium chloride]",2
8,"CC(C)(C)c1cc(C(=O)NC[C@@H](N)CCCN)cc(C(C)(C)C)c1.Cl.Cl [Example 10, (S)-5-(3,5-di-tert-butylbenzamido)pentane-1,4-diaminium chloride]",64
9,"Cl.Cl.NCCC[C@@H](N)CNC(=O)c1cc(C(F)(F)F)cc(C(F)(F)F)c1 [Example 8, (R)-5-(3,5-bis(trifluoromethyl)benzamido)pentane-1,4-diaminium chloride]",8
10,"Cl.Cl.NCCC[C@H](N)CNC(=O)c1ccc(C(F)(F)F)cc1 [Example 3, (S)-5-(4-(trifluoromethyl)benzamido)pentane-1,4-diaminium chloride]",4
11,"Cl.Cl.NCCC[C@H](N)CNC(=O)c1cc(C(F)(F)F)cc(C(F)(F)F)c1 [Example 7, (S)-5-(3,5-bis(trifluoromethyl)benzamido)pentane-1,4-diaminium chloride]",16
12,"Cl.Cl.NCCC[C@H](N)CNC(=O)c1ccccc1C(F)(F)F [Example 1, (S)-5-(2-(trifluoromethyl)benzamido)pentane-1,4-diaminium chloride]",1
13,"Cl.Cl.NCCC[C@H](N)CNC(=O)c1cc(-c2ccccc2)cc(-c2ccccc2)c1 [Example 11, (S)-5-([1,1′:3′,1″-terphenyl]-5′-carboxamido)pentane-1,4-diaminium chloride]",128
